From patent publication US9156831B2, “Chemical compounds” (ASTRAZENECA AB, priority 2013, dated 2015)

Legend:
HCC70 xenograft = experiment: Tumour growth inhibition, HCC70 xenograft model; type: in vivo, mouse; details: Example 3 alone 25 mg/kg BID every day; FIG. 13
Procedure: HCC70 is breast tumour cell line which is deficient in PTEN gene expression. Female Swiss athymic nude mice (swiss nu/nu—AZUK) were transplanted subcutaneously with the breast ductal epithelial tumour cell line HCC70 (ATCC—CRL2315) cells. 1×10^6 cells in 50% matrigel (BD Bioscience) were injected s.c. on the left flank of the animals.
Animals were randomised into groups of 10-15 when tumours reached a volume of ˜200-300 mm^3 and treatment commenced. Animals were dosed for 3-4 weeks by peroral route, with compound in a suitable vehicle at defined doses and schedules. Tumours were measured two-three times weekly by caliper and volume of tumours calculated using elliptical formula (pi/6×width×width×length).

HCCC9810 = experiment: Cell proliferation assay (MTS); type: cell-based, human
Procedure: (§1) The sensitivity of a panel of human cancer cell lines to the effects of compounds was determined in a standard proliferation assay.
(§2) Cells were plated in 96 well plates at densities of 1000-6000 cells per well in RPMI media containing 10% FBS. After incubation at 37° C. for 16 hours, various concentrations of compound were added to the assay plates. After incubation for an additional 72 h, the viable cells were determined by the addition of MTS reagent (Promega #3582) to each well for 2 h. MTS is a tetrazolium salt that is bioreduced by metabolically active cells in the presence of an electron coupling reagent to formazan. The formazan product was then quantitated by absorbance at 490 nm, as an indicator of the relative number of live cells. In order to determine the GI50 (concentration at which growth of cells was inhibited by 50%) the relative number of cells present at the time of drug addition was determined by comparison with the MTS readout before the drug was added, and this value was subtracted from the 72 hr value of untreated cells as a measure of cell growth during the assay.

LOVO = experiment: Cell proliferation assay (MTS); type: cell-based, human
Procedure: as §1, §2

HARA = experiment: Cell proliferation assay (MTS); type: cell-based, human
Procedure: as §1, §2

PANC1 = experiment: Cell proliferation assay (MTS); type: cell-based, human
Procedure: as §1
(§3) Cells were plated in 96 well plates at densities of 1000-6000 cells per well in RPMI media containing 10% FBS. After incubation at 37° C. for 16 hours, various concentrations of compound were added to the assay plates. After incubation for an additional 72 h, the viable cells were determined by the addition of MTS reagent (Promega #3582) to each well for 2 h. […] The formazan product was then quantitated by absorbance at 490 nm, as an indicator of the relative number of live cells. In order to determine the GI50 (concentration at which growth of cells was inhibited by 50%) the relative number of cells present at the time of drug addition was determined by comparison with the MTS readout before the drug was added, and this value was subtracted from the 72 hr value of untreated cells as a measure of cell growth during the assay.

HCC1954 = experiment: Cell proliferation assay (MTS); type: cell-based, human
Procedure: as §1, §2

TCCSUP = experiment: Cell proliferation assay (MTS); type: cell-based, human
Procedure: as §1, §2

LNCAPCLONEFGC = experiment: Cell proliferation assay (MTS); type: cell-based, human
Procedure: (§4) The sensitivity of a panel of human cancer cell lines to the effects of compounds was determined in a standard proliferation assay. Cell lines were sourced through the AstraZeneca Cell Bank.
as §2

SNU16 = experiment: Cell proliferation assay (MTS); type: cell-based, human
Procedure: as §1, §2

SNU354 = experiment: Cell proliferation assay (MTS); type: cell-based, human
Procedure: as §1, §3

DU145 = experiment: Cell proliferation assay (MTS); type: cell-based, human
Procedure: as §1, §3

[…] = Cell proliferation assay (MTS); type: cell-based, human
Procedure: as §1, §2

NUGC3 = experiment: Cell proliferation assay (MTS); type: cell-based, human
Procedure: as §4, §2

RAMOS = experiment: Cell proliferation assay (MTS); type: cell-based, human
Procedure: as §1, §2

MONOMAC6 = experiment: Cell proliferation assay (MTS); type: cell-based, human
Procedure: as §1, §2

CMK = experiment: Cell proliferation assay (MTS); type: cell-based, human
Procedure: as §1, §2

CALU3 = experiment: Cell proliferation assay (MTS); type: cell-based, human
Procedure: as §4, §3

ARH77 = experiment: Cell proliferation assay (MTS); type: cell-based, human
Procedure: as §1, §2

H647 = experiment: Cell proliferation assay (MTS); type: cell-based, human
Procedure: as §1, §2

647V = experiment: Cell proliferation assay (MTS); type: cell-based, human
Procedure: as §1, §3

HCT8 = experiment: Cell proliferation assay (MTS); type: cell-based, human
Procedure: as §4, §2

RPM18226 = experiment: Cell proliferation assay (MTS); type: cell-based, human
Procedure: as §1, §3

RAJI = experiment: Cell proliferation assay (MTS); type: cell-based, human
Procedure: as §1, §2

BEL7405 = experiment: Cell proliferation assay (MTS); type: cell-based, human
Procedure: as §4, §2

MV411 = experiment: Cell proliferation assay (MTS); type: cell-based, human
Procedure: as §1, §2

PANC0327 = experiment: Cell proliferation assay (MTS); type: cell-based, human
Procedure: as §4, §2

OCILY19 = experiment: Cell proliferation assay (MTS); type: cell-based, human
Procedure: as §1, §2

MDAMB157 = experiment: Cell proliferation assay (MTS); type: cell-based, human
Procedure: as §1, §2

SW948 = experiment: Cell proliferation assay (MTS); type: cell-based, human
Procedure: as §1, §2

T24 = experiment: Cell proliferation assay (MTS); type: cell-based, human
Procedure: as §4, §2

H2126 = experiment: Cell proliferation assay (MTS); type: cell-based, human
Procedure: as §4, §2

H526 = experiment: Cell proliferation assay (MTS); type: cell-based, human
Procedure: as §1, §2

H460DNP53 = experiment: Cell proliferation assay (MTS); type: cell-based, human
Procedure: as §1, §2

OE33 = experiment: Cell proliferation assay (MTS); type: cell-based, human
Procedure: as §1, §3

OVCAR3 = experiment: Cell proliferation assay (MTS); type: cell-based, human
Procedure: as §1, §2

SNU638 = experiment: Cell proliferation assay (MTS); type: cell-based, human
Procedure: as §4, §2

SNU620 = experiment: Cell proliferation assay (MTS); type: cell-based, human
Procedure: as §4, §2

H1703 = experiment: Cell proliferation assay (MTS); type: cell-based, human
Procedure: as §4, §2

H23 = experiment: Cell proliferation assay (MTS); type: cell-based, human
Procedure: as §4, §2

[1] = Homo sapiens, Blood/lymph, PIK3CA WT

With `CCn1nc(C2CCN(C(=O)CCO)CC2)nc1-c1cnc(N)c(-c2nnc(C(C)(C)C)o2)n1` [Example 3, 1-(4-(5-(5-amino-6-(5-tert-butyl-1,3,4-oxadiazol-2-yl)pyrazin-2-yl)-1-ethyl-1H-1,2,4-triazol-3-yl)piperidin-1-yl)-3-hydroxypropan-1-one] the tumour growth (HCC70 xenograft) was “inhibited growth more strongly”, the Category (HCCC9810) was “Resistant (resistant (GI50>1.0 μM))” and the GI50 (HCCC9810; Homo sapiens, Bile duct, PIK3CA WT) was 10 µM. The Category (LOVO) was “Resistant (resistant (GI50>1.0 μM))”, the GI50 (LOVO; Homo sapiens, Colon, PIK3CA WT) was 18.6 µM and the Category (HARA) was “Resistant (resistant (GI50>1.0 μM))”. The GI50 (HARA; Homo sapiens, Lung, PIK3CA WT) was 1.91 µM, the Category (PANC1) was “Resistant (resistant (GI50>1.0 μM))” and the GI50 (PANC1; Homo sapiens, PANC-1, Pancreas, PIK3CA WT) was 5.34 µM. For the same molecule, the Category (HCC1954) was “Sensitive (sensitive (GI50<=1.0 μM))”, the GI50 (HCC1954; Homo sapiens, Breast, PIK3CA MUT) was 0.879 µM and the Category (TCCSUP) was “Sensitive (sensitive (GI50<=1.0 μM))”. The GI50 (TCCSUP; Homo sapiens, TCC-SUP, Bladder, PIK3CA MUT) was 0.724 µM, the Category (LNCAPCLONEFGC) was “Resistant (resistant (GI50>1.0 μM))” and the GI50 (LNCAPCLONEFGC; Homo sapiens, LNCaP-Clone-FGC, Prostate, PIK3CA WT) was 3.01 µM. For the same molecule, the Category (SNU16) was “Resistant (resistant (GI50>1.0 μM))”, the GI50 (SNU16; Homo sapiens, SNU-16, Stomach, PIK3CA WT) was 16.8 µM and the Category (SNU354) was “Resistant (resistant (GI50>1.0 μM))”. For the same molecule, the GI50 (SNU354; Homo sapiens, SNU-354, Liver, PIK3CA WT) was 5.6 µM, the Category (DU145) was “Resistant (resistant (GI50>1.0 μM))” and the GI50 (DU145; Homo sapiens, DU-145, Prostate, PIK3CA WT) was 8.24 µM. The GI50 ([…]; Homo sapiens) was 0.792 µM, the Category ([…]; […]) was “Sensitive (sensitive (GI50<=1.0 μM))” and the Category (NUGC3) was “Resistant (resistant (GI50>1.0 μM))”. For the same molecule, the GI50 (NUGC3; Homo sapiens, NUGC-3, Stomach, PIK3CA WT) was 24.2 µM, the Category (RAMOS) was “Resistant (resistant (GI50>1.0 μM))” and the GI50 (RAMOS; [1]) was 30 µM. For the same molecule, the Category (MONOMAC6) was “Resistant (resistant (GI50>1.0 μM))”, the GI50 (MONOMAC6; Homo sapiens, MONO-MAC-6, Blood/lymph, PIK3CA WT) was 2.62 µM and the Category (CMK) was “Resistant (resistant (GI50>1.0 μM))”. For the same molecule, the GI50 (CMK; [1]) was 28.9 µM, the Category (CALU3) was “Resistant (resistant (GI50>1.0 μM))” and the GI50 (CALU3; Homo sapiens, Calu-3, Lung, PIK3CA WT) was 1.3 µM. The Category (ARH77) was “Resistant (resistant (GI50>1.0 μM))”, the GI50 (ARH77; Homo sapiens, ARH-77, Blood/lymph, PIK3CA WT) was 30 µM and the Category (H647) was “Resistant (resistant (GI50>1.0 μM))”. For the same molecule, the GI50 (H647; Homo sapiens, NCI-H647, Lung, PIK3CA WT) was 11.3 µM, the Category (647V) was “Resistant (resistant (GI50>1.0 μM))” and the GI50 (647V; Homo sapiens, Bladder, PIK3CA WT) was 5.46 µM. The Category (HCT8) was “Resistant (resistant (GI50>1.0 μM))”, the GI50 (HCT8; Homo sapiens, HCT-8, Colon, PIK3CA MUT) was 2.51 µM and the Category (RPM18226) was “Resistant (resistant (GI50>1.0 μM))”. The GI50 (RPM18226; [1]) was 30 µM, the Category (RAJI) was “Resistant (resistant (GI50>1.0 μM))” and the GI50 (RAJI; [1]) was 30 µM. For the same molecule, the Category (BEL7405) was “Resistant (resistant (GI50>1.0 μM))”, the GI50 (BEL7405; Homo sapiens, Liver, PIK3CA WT) was 8.11 µM and the Category (MV411) was “Sensitive (sensitive (GI50<=1.0 μM))”. For the same molecule, the GI50 (MV411; Homo sapiens, MV4-11, Blood/lymph, PIK3CA WT) was 0.382 µM, the Category (PANC0327) was “Resistant (resistant (GI50>1.0 μM))” and the GI50 (PANC0327; Homo sapiens, PANC-03-27, Pancreas, PIK3CA WT) was 8.03 µM. The Category (OCILY19) was “Resistant (resistant (GI50>1.0 μM))”, the GI50 (OCILY19; Homo sapiens, OCI-LY19, Blood/lymph, PIK3CA WT) was 30 µM and the Category (MDAMB157) was “Resistant (resistant (GI50>1.0 μM))”. For the same molecule, the GI50 (MDAMB157; Homo sapiens, MDA-MB-157, Breast, PIK3CA WT) was 30 µM, the Category (SW948) was “Sensitive (sensitive (GI50<=1.0 μM))” and the GI50 (SW948; Homo sapiens, Colon, PIK3CA MUT) was 0.911 µM. The Category (T24) was “Resistant (resistant (GI50>1.0 μM))”, the GI50 (T24; Homo sapiens, T-24, Bladder, PIK3CA WT) was 30 µM and the Category (H2126) was “Resistant (resistant (GI50>1.0 μM))”. The GI50 (H2126; Homo sapiens, NCI-H2126, Lung, PIK3CA WT) was 12.9 µM, the Category (H526) was “Resistant (resistant (GI50>1.0 μM))” and the GI50 (H526; Homo sapiens, NCI-H526, Lung, PIK3CA WT) was 30 µM. For the same molecule, the Category (H460DNP53) was “Resistant (resistant (GI50>1.0 μM))”, the GI50 (H460DNP53; Homo sapiens, Lung, PIK3CA WT) was 18 µM and the Category (OE33) was “Resistant (resistant (GI50>1.0 μM))”. The GI50 (OE33; Homo sapiens, Esophagus, PIK3CA WT) was 9.86 µM, the Category (OVCAR3) was “Resistant (resistant (GI50>1.0 μM))” and the GI50 (OVCAR3; Homo sapiens, OVCAR-3, Ovary, PIK3CA WT) was 1.18 µM. The Category (SNU638) was “Resistant (resistant (GI50>1.0 μM))”, the GI50 (SNU638; Homo sapiens, SNU-638, Stomach, PIK3CA WT) was 8.22 µM and the Category (SNU620) was “Resistant (resistant (GI50>1.0 μM))”. The GI50 (SNU620; Homo sapiens, Stomach, PIK3CA WT) was 3.14 µM, the Category (H1703) was “Sensitive (sensitive (GI50<=1.0 μM))” and the GI50 (H1703; Homo sapiens, NCI-H1703, Lung, PIK3CA WT) was 0.514 µM. For the same molecule, the Category (H23) was “Resistant (resistant (GI50>1.0 μM))” and the GI50 (H23; Homo sapiens, NCI-H23, Lung, PIK3CA WT) was 12.3 µM.
